Source: PMC2919811 (Analytical biochemistry, 2010)

Tests used:
Type in all cases: cell-based
Details in all cases: 10 μM 8-FcA, 20 minutes
NTCP = target: T1, NTCP (Homo sapiens, UniProt Q14973); assay: Cellular accumulation in CHO cells transiently transfected with NTCP
T1 sequence (Q14973 1-349): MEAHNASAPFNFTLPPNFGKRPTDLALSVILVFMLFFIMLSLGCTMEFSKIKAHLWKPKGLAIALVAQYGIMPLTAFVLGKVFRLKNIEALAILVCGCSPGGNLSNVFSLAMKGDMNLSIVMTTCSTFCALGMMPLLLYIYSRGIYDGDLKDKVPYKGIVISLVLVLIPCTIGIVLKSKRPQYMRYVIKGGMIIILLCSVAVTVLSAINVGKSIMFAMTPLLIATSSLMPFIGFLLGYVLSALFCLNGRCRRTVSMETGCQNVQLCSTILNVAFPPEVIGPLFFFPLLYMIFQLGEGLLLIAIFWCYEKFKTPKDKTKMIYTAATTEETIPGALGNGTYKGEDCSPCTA

OATP2B1 = target: T2, OATP2B1 (Homo sapiens, UniProt O94956); assay: Cellular accumulation in CHO cells transiently transfected with OATP2B1
T2 sequence (O94956 1-709): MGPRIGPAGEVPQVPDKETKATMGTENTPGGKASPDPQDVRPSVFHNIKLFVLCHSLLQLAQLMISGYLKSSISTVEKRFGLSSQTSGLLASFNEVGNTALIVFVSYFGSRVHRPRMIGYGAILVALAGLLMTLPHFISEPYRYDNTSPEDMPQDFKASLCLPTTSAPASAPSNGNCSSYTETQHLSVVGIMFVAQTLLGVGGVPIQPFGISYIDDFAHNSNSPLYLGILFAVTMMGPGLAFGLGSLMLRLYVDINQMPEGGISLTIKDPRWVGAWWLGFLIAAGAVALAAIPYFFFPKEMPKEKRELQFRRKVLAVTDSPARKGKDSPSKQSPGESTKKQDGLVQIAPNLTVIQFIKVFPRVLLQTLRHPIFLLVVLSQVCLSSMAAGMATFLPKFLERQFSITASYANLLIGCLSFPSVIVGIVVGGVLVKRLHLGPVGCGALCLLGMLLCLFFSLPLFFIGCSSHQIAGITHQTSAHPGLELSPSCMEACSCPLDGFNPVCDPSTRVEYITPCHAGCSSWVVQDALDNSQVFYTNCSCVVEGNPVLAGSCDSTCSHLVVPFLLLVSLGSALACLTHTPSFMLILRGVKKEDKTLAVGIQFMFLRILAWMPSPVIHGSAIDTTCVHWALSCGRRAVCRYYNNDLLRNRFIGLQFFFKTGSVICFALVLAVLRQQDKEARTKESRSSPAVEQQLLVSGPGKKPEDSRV

OAT3 = target: T3, OAT3 (Homo sapiens, UniProt Q8TCC7)
T3 sequence (Q8TCC7 1-542): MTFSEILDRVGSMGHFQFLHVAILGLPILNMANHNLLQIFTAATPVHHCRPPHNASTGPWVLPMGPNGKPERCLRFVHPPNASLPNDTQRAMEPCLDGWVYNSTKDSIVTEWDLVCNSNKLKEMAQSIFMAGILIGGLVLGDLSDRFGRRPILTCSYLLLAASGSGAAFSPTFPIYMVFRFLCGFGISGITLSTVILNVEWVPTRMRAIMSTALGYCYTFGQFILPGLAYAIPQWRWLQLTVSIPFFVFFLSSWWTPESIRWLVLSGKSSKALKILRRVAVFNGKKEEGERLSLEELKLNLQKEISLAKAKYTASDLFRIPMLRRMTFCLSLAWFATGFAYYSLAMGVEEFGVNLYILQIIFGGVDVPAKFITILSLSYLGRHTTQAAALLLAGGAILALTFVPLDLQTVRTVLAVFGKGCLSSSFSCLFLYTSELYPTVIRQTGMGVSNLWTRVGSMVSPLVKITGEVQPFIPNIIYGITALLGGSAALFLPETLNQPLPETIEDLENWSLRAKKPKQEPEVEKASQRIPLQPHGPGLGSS

OCT1 = target: T4, OCT1 (Homo sapiens, UniProt O15245); assay: Cellular accumulation in CHO cells transiently transfected with OCT1
T4 sequence (O15245 1-554): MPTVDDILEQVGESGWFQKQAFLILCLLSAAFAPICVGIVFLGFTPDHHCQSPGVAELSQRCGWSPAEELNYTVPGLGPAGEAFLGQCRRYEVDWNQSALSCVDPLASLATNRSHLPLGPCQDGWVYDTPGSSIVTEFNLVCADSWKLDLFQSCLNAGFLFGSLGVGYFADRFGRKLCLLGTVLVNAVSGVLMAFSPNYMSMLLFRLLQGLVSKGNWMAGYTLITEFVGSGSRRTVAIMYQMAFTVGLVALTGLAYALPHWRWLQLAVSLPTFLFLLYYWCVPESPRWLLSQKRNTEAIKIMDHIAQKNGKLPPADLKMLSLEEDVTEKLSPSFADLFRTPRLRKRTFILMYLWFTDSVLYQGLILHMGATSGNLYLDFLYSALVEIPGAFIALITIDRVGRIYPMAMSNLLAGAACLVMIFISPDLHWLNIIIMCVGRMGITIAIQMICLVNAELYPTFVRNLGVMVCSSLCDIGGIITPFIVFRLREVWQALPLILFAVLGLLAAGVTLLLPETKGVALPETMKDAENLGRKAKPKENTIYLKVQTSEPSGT

Nc1ncnc2c1nc(SCCNC(=S)Nc1ccc(-c3c4ccc(=O)cc-4oc4cc(O)ccc34)c(C(=O)O)c1)n2[C@@H]1O[C@@H]2COP(=O)(O)O[C@H]2[C@H]1O [8-FcA, 8-(2-[Fluoresceinyl]aminoethylthio) adenosine-3', 5'-cyclic monophosphate]
negative: cellular accumulation by fluorescence microscopy, NTCP (NTCP) | cellular accumulation by fluorescence microscopy, OATP2B1 (OATP2B1) | cellular accumulation by fluorescence microscopy, OAT3 (OAT3) | cellular accumulation by fluorescence microscopy, OCT1 (OCT1)
